Measurements from patent publication US20210255193A1, “LYSINE REACTIVE PROBES AND USES THEREOF” (The Scripps Research Institute, priority 2017, published 2021).

Experiments:
Experiment in all cases: competitive isoTOP-ABPP
Type in all cases: binding
[1] = molecular target: T1, FAH Fumarylacetoacetase (Homo sapiens, UniProt P16930); conditions: for isoTOP-ABPP ratio (R) at liganded lysine P16930_K241 / isoTOP-ABPP reactivity ratio at lysine P16930_K241 / R value (DMSO/fragment) for probe 1 labeling: 50 uM, in vitro; for isoTOP-ABPP ratio (R) at liganded lysine P16930_K241: sol, 231; for isoTOP-ABPP reactivity ratio at lysine P16930_K241 / R value (DMSO/fragment) for probe 1 labeling: 231 sol; for R value (DMSO/fragment) for probe 1 labeling: P16930_K241; for isoTOP-ABPP ratio, lysine P16930_K241: 50 uM_231_sol_in vitro
T1 construct: isoTOP-ABPP experiments performed in cell lysates (in vitro); endogenous in cells; host or cells: soluble proteome of human cancer cell lines (MDA-MB-231; Ramos and Jurkat also prepared)
T1 sequence (P16930 1-419): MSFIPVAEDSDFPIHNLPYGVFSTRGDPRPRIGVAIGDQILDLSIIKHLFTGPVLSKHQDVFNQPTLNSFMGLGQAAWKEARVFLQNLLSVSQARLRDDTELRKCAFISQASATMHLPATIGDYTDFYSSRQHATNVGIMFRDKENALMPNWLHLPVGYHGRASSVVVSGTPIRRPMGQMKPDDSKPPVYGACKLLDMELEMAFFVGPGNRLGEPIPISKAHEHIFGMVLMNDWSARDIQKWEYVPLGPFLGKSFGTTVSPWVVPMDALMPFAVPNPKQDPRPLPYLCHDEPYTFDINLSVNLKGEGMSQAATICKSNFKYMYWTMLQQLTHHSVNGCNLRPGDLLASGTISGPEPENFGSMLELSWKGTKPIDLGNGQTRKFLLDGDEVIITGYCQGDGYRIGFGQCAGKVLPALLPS
How it was run: (§1)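 Probe: STP-alkyne, 0.1 mM, 1 h RT, after fragment pretreatment of lysate (esters 50 μM; guanidinylators 100 μM). Tags: light = compound, heavy = DMSO, via CuAAC. Replicates averaged if SD <60% of mean; otherwise lowest ratio used when any R <4.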

[2] = molecular target: T2, XRCC6 X-ray repair cross-complementing protein 6 (Homo sapiens, UniProt P12956); conditions: for isoTOP-ABPP ratio (R) at liganded lysine P12956_K351 / isoTOP-ABPP reactivity ratio at lysine P12956_K351 / R value (DMSO/fragment) for probe 1 labeling: 50 uM, in vitro; for isoTOP-ABPP ratio (R) at liganded lysine P12956_K351: sol, 231; for isoTOP-ABPP reactivity ratio at lysine P12956_K351 / R value (DMSO/fragment) for probe 1 labeling: 231 sol; for R value (DMSO/fragment) for probe 1 labeling: P12956_K351; for isoTOP-ABPP ratio, lysine P12956_K351: 50 uM_231_sol_in vitro
T2 construct: isoTOP-ABPP experiments performed in cell lysates (in vitro); endogenous in cells; host or cells: soluble proteome of human cancer cell lines (MDA-MB-231; Ramos and Jurkat also prepared)
How it was run: as §1

[3] = molecular target: T3, AP1G1 AP-1 complex subunit gamma-1 (Homo sapiens, UniProt O43747); conditions: for isoTOP-ABPP ratio (R) at liganded lysine O43747_K214 / isoTOP-ABPP reactivity ratio at lysine O43747_K214 / R value (DMSO/fragment) for probe 1 labeling: 50 uM, in vitro; for isoTOP-ABPP ratio (R) at liganded lysine O43747_K214: sol, 231; for isoTOP-ABPP reactivity ratio at lysine O43747_K214 / R value (DMSO/fragment) for probe 1 labeling: 231 sol; for R value (DMSO/fragment) for probe 1 labeling: O43747_K214; for isoTOP-ABPP ratio, lysine O43747_K214: 50 uM_231_sol_in vitro
T3 construct: isoTOP-ABPP experiments performed in cell lysates (in vitro); endogenous in cells; host or cells: MDA-MB-231 soluble lysate
T3 sequence (O43747 1-822): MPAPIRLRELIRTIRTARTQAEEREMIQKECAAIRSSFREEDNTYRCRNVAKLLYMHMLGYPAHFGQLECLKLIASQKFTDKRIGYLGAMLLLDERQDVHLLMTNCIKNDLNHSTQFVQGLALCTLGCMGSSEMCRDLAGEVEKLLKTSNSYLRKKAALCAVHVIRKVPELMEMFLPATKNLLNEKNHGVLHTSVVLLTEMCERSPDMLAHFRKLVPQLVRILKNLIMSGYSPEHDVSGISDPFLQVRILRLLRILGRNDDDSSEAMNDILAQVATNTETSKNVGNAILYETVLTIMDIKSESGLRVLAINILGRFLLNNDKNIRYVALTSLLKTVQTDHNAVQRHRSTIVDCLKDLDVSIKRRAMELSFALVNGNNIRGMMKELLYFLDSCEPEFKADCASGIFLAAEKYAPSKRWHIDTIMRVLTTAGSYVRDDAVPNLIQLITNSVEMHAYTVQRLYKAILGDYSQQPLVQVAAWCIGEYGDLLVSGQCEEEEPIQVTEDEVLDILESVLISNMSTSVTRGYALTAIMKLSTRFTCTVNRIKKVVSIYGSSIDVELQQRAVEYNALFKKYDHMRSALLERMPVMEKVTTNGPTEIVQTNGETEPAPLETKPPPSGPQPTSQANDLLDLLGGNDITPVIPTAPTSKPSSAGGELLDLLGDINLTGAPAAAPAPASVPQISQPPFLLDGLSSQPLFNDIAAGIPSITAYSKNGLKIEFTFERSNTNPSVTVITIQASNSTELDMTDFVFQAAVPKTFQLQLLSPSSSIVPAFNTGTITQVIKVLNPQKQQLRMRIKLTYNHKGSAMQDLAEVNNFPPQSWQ
How it was run: as §1

T2 sequence (P12956 2-609 limits assumed): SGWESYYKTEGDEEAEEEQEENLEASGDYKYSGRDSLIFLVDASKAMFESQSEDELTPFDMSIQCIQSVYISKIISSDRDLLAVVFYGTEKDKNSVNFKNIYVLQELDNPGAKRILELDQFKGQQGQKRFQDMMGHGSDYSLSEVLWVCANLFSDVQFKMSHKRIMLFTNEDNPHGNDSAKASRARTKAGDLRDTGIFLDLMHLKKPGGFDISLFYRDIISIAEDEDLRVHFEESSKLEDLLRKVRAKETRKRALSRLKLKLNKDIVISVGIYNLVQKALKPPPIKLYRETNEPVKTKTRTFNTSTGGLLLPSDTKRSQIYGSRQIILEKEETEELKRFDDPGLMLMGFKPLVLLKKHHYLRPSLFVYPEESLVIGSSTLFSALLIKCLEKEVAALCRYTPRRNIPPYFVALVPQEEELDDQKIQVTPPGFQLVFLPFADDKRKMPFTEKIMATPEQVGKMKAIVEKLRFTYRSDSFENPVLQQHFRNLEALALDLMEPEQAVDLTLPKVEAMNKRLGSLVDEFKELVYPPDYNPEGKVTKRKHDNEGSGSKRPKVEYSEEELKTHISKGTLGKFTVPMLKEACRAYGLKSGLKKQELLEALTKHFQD
T2 sequence (P13010 2-732 partner limits assumed): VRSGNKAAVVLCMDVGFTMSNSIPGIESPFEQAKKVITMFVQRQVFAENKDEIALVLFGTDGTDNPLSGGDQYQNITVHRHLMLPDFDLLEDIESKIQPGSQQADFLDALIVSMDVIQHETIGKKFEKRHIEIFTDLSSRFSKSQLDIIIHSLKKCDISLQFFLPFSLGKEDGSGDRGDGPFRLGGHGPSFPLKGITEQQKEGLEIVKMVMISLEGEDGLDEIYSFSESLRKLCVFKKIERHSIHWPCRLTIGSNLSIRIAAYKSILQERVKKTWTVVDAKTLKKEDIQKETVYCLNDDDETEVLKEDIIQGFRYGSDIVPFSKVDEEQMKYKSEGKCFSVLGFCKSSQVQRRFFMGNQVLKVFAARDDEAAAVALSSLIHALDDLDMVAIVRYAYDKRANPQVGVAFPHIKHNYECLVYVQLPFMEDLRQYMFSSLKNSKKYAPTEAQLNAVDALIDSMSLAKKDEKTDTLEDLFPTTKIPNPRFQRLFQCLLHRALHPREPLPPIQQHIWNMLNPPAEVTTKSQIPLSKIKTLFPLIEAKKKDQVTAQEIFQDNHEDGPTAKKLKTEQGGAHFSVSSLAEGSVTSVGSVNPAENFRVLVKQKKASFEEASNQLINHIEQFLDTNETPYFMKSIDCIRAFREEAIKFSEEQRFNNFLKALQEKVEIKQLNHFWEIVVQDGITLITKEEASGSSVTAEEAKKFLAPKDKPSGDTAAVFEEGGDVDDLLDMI

O=C(CCc1coc2cc(F)ccc2c1=O)Oc1ccc([N+](=O)[O-])cc1[N+](=O)[O-] [fragment 36, 2,4-Dinitrophenyl 3-(7-fluoro-4-oxo-4H-chromen-3-yl)propanoate]
isoTOP-ABPP ratio (R) at liganded lysine P16930_K241 [1]: 3.6
isoTOP-ABPP ratio (R) at liganded lysine P12956_K351 [2]: 2.1
isoTOP-ABPP ratio (R) at liganded lysine O43747_K214 [3]: 1.1

O=C(Oc1ccc([N+](=O)[O-])cc1[N+](=O)[O-])C(c1ccccc1)(c1ccccc1)c1ccccc1 [fragment 42, 2,4-Dinitrophenyl 2,2,2-triphenylacetate]
isoTOP-ABPP ratio (R) at liganded lysine P16930_K241 [1]: 0.9
isoTOP-ABPP ratio (R) at liganded lysine P12956_K351 [2]: 1.0
isoTOP-ABPP ratio (R) at liganded lysine O43747_K214 [3]: 0.8

O=C(CCc1coc2cc(F)ccc2c1=O)Oc1c(F)c(F)c(F)c(F)c1F [fragment 26, Pentafluorophenyl 3-(7-fluoro-4-oxo-4H-chromen-3-yl)propanoate]
isoTOP-ABPP reactivity ratio at lysine P16930_K241 [1]: 5.0
isoTOP-ABPP reactivity ratio at lysine P12956_K351 [2]: 2.1
isoTOP-ABPP reactivity ratio at lysine O43747_K214 [3]: 1.1

O=C(Oc1ccc([N+](=O)[O-])cc1[N+](=O)[O-])c1ccccc1Nc1cccc(C(F)(F)F)c1 [fragment 40, 2,4-Dinitrophenyl 2-((3-(trifluoromethyl)phenyl)amino)benzoate]
isoTOP-ABPP ratio (R) at liganded lysine P16930_K241 [1]: 1.4
isoTOP-ABPP ratio (R) at liganded lysine P12956_K351 [2]: 1.0
isoTOP-ABPP ratio (R) at liganded lysine O43747_K214 [3]: 0.9

O=C(Oc1ccc([N+](=O)[O-])cc1[N+](=O)[O-])C1CCN(C(=O)OCc2ccccc2)CC1 [fragment 34, 1-Benzyl 4-(2,4-dinitrophenyl) piperidine-1,4-dicarboxylate]
isoTOP-ABPP ratio (R) at liganded lysine P16930_K241 [1]: 1.2
isoTOP-ABPP ratio (R) at liganded lysine P12956_K351 [2]: 1.6
isoTOP-ABPP ratio (R) at liganded lysine O43747_K214 [3]: 1.7

Cn1cc(CC(=O)Oc2c(F)c(F)c(F)c(F)c2F)c2ccccc21 [fragment 22, Pentafluorophenyl 2-(1-methyl-1H-indol-3-yl)acetate]
R value (DMSO/fragment) for probe 1 labeling [1]: 3.0
R value (DMSO/fragment) for probe 1 labeling [2]: 3.6
R value (DMSO/fragment) for probe 1 labeling [3]: 1.1

O=C(Oc1c(F)c(F)c(C(F)(F)F)c(F)c1F)c1cc(C(F)(F)F)cc(C(F)(F)F)c1 [fragment 47, 2,3,5,6-Tetrafluoro-4-(trifluoromethyl)phenyl 3,5-bis(trifluoromethyl)benzoate]
isoTOP-ABPP ratio, lysine P16930_K241 [1]: 1.2
isoTOP-ABPP ratio, lysine P12956_K351 [2]: 1.4
isoTOP-ABPP ratio, lysine O43747_K214 [3]: 0.8

O=C(CC12CC3CC(CC(C3)C1)C2)Oc1ccc([N+](=O)[O-])cc1[N+](=O)[O-] [fragment 38, 2,4-Dinitrophenyl 2-(adamantan-1-yl)acetate]
isoTOP-ABPP ratio (R) at liganded lysine P16930_K241 [1]: 1.0
isoTOP-ABPP ratio (R) at liganded lysine P12956_K351 [2]: 3.3
isoTOP-ABPP ratio (R) at liganded lysine O43747_K214 [3]: 0.9

O=C(ON1C(=O)CCC1=O)c1cc(C(F)(F)F)cc(C(F)(F)F)c1 [fragment 46, 3,5-Bis(trifluoromethyl)benzoic acid NHS ester]
isoTOP-ABPP ratio, lysine P16930_K241 [1]: 8.1
isoTOP-ABPP ratio, lysine P12956_K351 [2]: 2.5
isoTOP-ABPP ratio, lysine O43747_K214 [3]: 1.0

NC(=O)c1cc(C(F)(F)F)cc(C(F)(F)F)c1 [fragment 51, reference compound]
isoTOP-ABPP ratio, lysine P16930_K241 [1]: 0.9
isoTOP-ABPP ratio, lysine P12956_K351 [2]: 0.8
isoTOP-ABPP ratio, lysine O43747_K214 [3]: 0.9

O=C(CN1C(=O)c2ccccc2C1=O)Oc1c(F)c(F)c(F)c(F)c1F [fragment 27, Pentafluorophenyl 2-(1,3-dioxoisoindolin-2-yl)acetate]
isoTOP-ABPP reactivity ratio at lysine P16930_K241 [1]: 1.8
isoTOP-ABPP reactivity ratio at lysine P12956_K351 [2]: 3.1
isoTOP-ABPP reactivity ratio at lysine O43747_K214 [3]: 0.9

O=C(CCc1cn(-c2ccccc2)nc1-c1ccccc1)Oc1c(F)c(F)c(F)c(F)c1F [fragment 19, Pentafluorophenyl 3-(1,3-diphenyl-1H-pyrazol-4-yl)propanoate]
R value (DMSO/fragment) for probe 1 labeling [1]: 2.5
R value (DMSO/fragment) for probe 1 labeling [2]: 1.7
R value (DMSO/fragment) for probe 1 labeling [3]: 1.0
